Measurements published in PubChem BioAssay AID2060503 (Molecular Pharmacology Branch, DTP, NCI, 2025).

Test system: 817829-284-R-J1-PDC complex spheroids, viability
Assay: Anticancer human tumor 817829-284-R-J1-PDC patient-derived colon adenocarcinoma cell line growth inhibition [GQUAD]
Conditions: for IC50: curve of first compound; for viability, T/C: stronger effect = lower value
How it was run: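 Multi-cell-type spheroids of tumor cells with HUVEC and mesenchymal stem cells, treated with drug combinations. Concentrations descend in half-log steps from near clinical Cmax, or from 10 microM where Cmax is unknown; viability read-out.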

[1] = second compound 0.0316 µM, first compound 0.0316 µM
[2] = second compound 0.0316 µM, first compound 0.316 µM
[3] = second compound 0.1 µM, first compound 0.0316 µM
[4] = second compound 0.1 µM, first compound 0.316 µM
[5] = second compound 0.316 µM, first compound 0.0316 µM
[6] = second compound 0.316 µM, first compound 0.316 µM
[7] = second compound 1 µM, first compound 0.0316 µM
[8] = second compound 1 µM, first compound 0.316 µM
[9] = second compound 3.16 µM, first compound 0.0316 µM
[10] = second compound 3.16 µM, first compound 0.316 µM
[11] = second compound 10 µM, first compound 0.0316 µM
[12] = second compound 10 µM, first compound 0.316 µM
[13] = second compound 0.0316 µM, first compound 0.1 µM
[14] = second compound 0.0316 µM, first compound 1 µM
[15] = second compound 0.0316 µM, first compound 3.16 µM
[16] = second compound 0.0316 µM, first compound 10 µM
[17] = second compound 0.1 µM, first compound 0.1 µM
[18] = second compound 0.1 µM, first compound 1 µM
[19] = second compound 0.1 µM, first compound 3.16 µM
[20] = second compound 0.1 µM, first compound 10 µM
[21] = second compound 0.316 µM, first compound 0.1 µM
[22] = second compound 0.316 µM, first compound 1 µM
[23] = second compound 0.316 µM, first compound 3.16 µM
[24] = second compound 0.316 µM, first compound 10 µM
[25] = second compound 1 µM, first compound 0.1 µM
[26] = second compound 1 µM, first compound 1 µM
[27] = second compound 1 µM, first compound 3.16 µM
[28] = second compound 1 µM, first compound 10 µM
[29] = second compound 3.16 µM, first compound 0.1 µM
[30] = second compound 3.16 µM, first compound 1 µM
[31] = second compound 3.16 µM, first compound 3.16 µM
[32] = second compound 3.16 µM, first compound 10 µM
[33] = second compound 10 µM, first compound 0.1 µM
[34] = second compound 10 µM, first compound 1 µM
[35] = second compound 10 µM, first compound 3.16 µM
[36] = second compound 10 µM, first compound 10 µM
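Also: spheroids exposed to agents for 7 days before readout.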
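For viability, T/C in this document: percent viability relative to DMSO vehicle control taken as 100%.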

Cc1[nH]c2ccccc2c1CCNCc1ccc(/C=C/C(=O)NO)cc1 + Cc1[nH]c2ccc(F)cc2c1-c1nc2c3cccnc3c3ncccc3c2[nH]1
IC50 (second compound 0.0316 µM): 54.5 nM | IC50 (second compound 0.1 µM): 53.6 nM | IC50 (second compound 0.316 µM): 55.2 nM | IC50 (second compound 1 µM): 51 nM | IC50 (second compound 3.16 µM): 20.2 nM | IC50 (second compound 10 µM): < 0.999 nM | viability, T/C (second compound 0.0316 µM, first compound 0.000999 µM): 89.7% | viability, T/C (second compound 0.0316 µM, first compound 0.00316 µM): 102% | viability, T/C (second compound 0.0316 µM, first compound 0.00999 µM): 121% | viability, T/C [1]: 91.4% | viability, T/C (second compound 0.0316 µM, first compound 0.0999 µM): 4.1% | viability, T/C [2]: 0.13% | viability, T/C (second compound 0.1 µM, first compound 0.000999 µM): 110% | viability, T/C (second compound 0.1 µM, first compound 0.00316 µM): 108% | viability, T/C (second compound 0.1 µM, first compound 0.00999 µM): 125% | viability, T/C [3]: 89.8% | viability, T/C (second compound 0.1 µM, first compound 0.0999 µM): 3.87% | viability, T/C [4]: 0.11% | viability, T/C (second compound 0.316 µM, first compound 0.000999 µM): 99.5% | viability, T/C (second compound 0.316 µM, first compound 0.00316 µM): 119% | viability, T/C (second compound 0.316 µM, first compound 0.00999 µM): 121% | viability, T/C [5]: 92.7% | viability, T/C (second compound 0.316 µM, first compound 0.0999 µM): 4.91% | viability, T/C [6]: 0.1% | viability, T/C (second compound 1 µM, first compound 0.000999 µM): 101% | viability, T/C (second compound 1 µM, first compound 0.00316 µM): 112% | viability, T/C (second compound 1 µM, first compound 0.00999 µM): 117% | viability, T/C [7]: 82% | viability, T/C (second compound 1 µM, first compound 0.0999 µM): 5.56% | viability, T/C [8]: 0.1% | viability, T/C (second compound 3.16 µM, first compound 0.000999 µM): 71.3% | viability, T/C (second compound 3.16 µM, first compound 0.00316 µM): 99.3% | viability, T/C (second compound 3.16 µM, first compound 0.00999 µM): 65.2% | viability, T/C [9]: 38.8% | viability, T/C (second compound 3.16 µM, first compound 0.0999 µM): 3.35% | viability, T/C [10]: 0.16% | viability, T/C (second compound 10 µM, first compound 0.000999 µM): 41.8% | viability, T/C (second compound 10 µM, first compound 0.00316 µM): 56.7% | viability, T/C (second compound 10 µM, first compound 0.00999 µM): 40.3% | viability, T/C [11]: 28.5% | viability, T/C (second compound 10 µM, first compound 0.0999 µM): 2.12% | viability, T/C [12]: 0.24%

O=C(NO)c1cnc(N2CCN(S(=O)(=O)c3ccc4ccccc4c3)CC2)nc1 + Cc1[nH]c2ccc(F)cc2c1-c1nc2c3cccnc3c3ncccc3c2[nH]1
IC50 (second compound 0.0316 µM): 166 nM | IC50 (second compound 0.1 µM): 189 nM | IC50 (second compound 0.316 µM): 195 nM | IC50 (second compound 1 µM): 186 nM | IC50 (second compound 3.16 µM): < 31.6 nM | IC50 (second compound 10 µM): < 31.6 nM | viability, T/C [1]: 97% | viability, T/C [13]: 88.9% | viability, T/C [2]: 0.76% | viability, T/C [14]: 0.18% | viability, T/C [15]: 0.1% | viability, T/C [16]: 0.14% | viability, T/C [3]: 101% | viability, T/C [17]: 120% | viability, T/C [4]: 1.55% | viability, T/C [18]: 0.16% | viability, T/C [19]: 0.08% | viability, T/C [20]: 0.16% | viability, T/C [5]: 101% | viability, T/C [21]: 128% | viability, T/C [6]: 3.53% | viability, T/C [22]: 0.12% | viability, T/C [23]: 0.08% | viability, T/C [24]: 0.15% | viability, T/C [7]: 118% | viability, T/C [25]: 106% | viability, T/C [8]: 1.91% | viability, T/C [26]: 0.1% | viability, T/C [27]: 0.08% | viability, T/C [28]: 0.14% | viability, T/C [9]: 9.69% | viability, T/C [29]: 13.6% | viability, T/C [10]: 0.27% | viability, T/C [30]: 0.1% | viability, T/C [31]: 0.08% | viability, T/C [32]: 0.13% | viability, T/C [11]: 5.27% | viability, T/C [33]: 7.46% | viability, T/C [12]: 0.18% | viability, T/C [34]: 0.12% | viability, T/C [35]: 0.17% | viability, T/C [36]: 0.15%

O=c1[nH]cc(F)c(=O)[nH]1 + Cc1[nH]c2ccc(F)cc2c1-c1nc2c3cccnc3c3ncccc3c2[nH]1
IC50 (second compound 0.0316 µM): 1590 nM | IC50 (second compound 0.1 µM): 1940 nM | IC50 (second compound 0.316 µM): 1990 nM | IC50 (second compound 1 µM): 1880 nM | IC50 (second compound 3.16 µM): 684 nM | IC50 (second compound 10 µM): 234 nM | viability, T/C [1]: 113% | viability, T/C [13]: 92.3% | viability, T/C [2]: 106% | viability, T/C [14]: 58.9% | viability, T/C [15]: 42.2% | viability, T/C [16]: 31.4% | viability, T/C [3]: 86.8% | viability, T/C [17]: 101% | viability, T/C [4]: 115% | viability, T/C [18]: 68.9% | viability, T/C [19]: 40.5% | viability, T/C [20]: 31.5% | viability, T/C [5]: 91.1% | viability, T/C [21]: 113% | viability, T/C [6]: 137% | viability, T/C [22]: 69.2% | viability, T/C [23]: 40.3% | viability, T/C [24]: 33.8% | viability, T/C [7]: 92.2% | viability, T/C [25]: 113% | viability, T/C [8]: 113% | viability, T/C [26]: 67.3% | viability, T/C [27]: 39.1% | viability, T/C [28]: 32.2% | viability, T/C [9]: 106% | viability, T/C [29]: 106% | viability, T/C [10]: 87.6% | viability, T/C [30]: 31.3% | viability, T/C [31]: 27.5% | viability, T/C [32]: 20.4% | viability, T/C [11]: 31.7% | viability, T/C [33]: 73.2% | viability, T/C [12]: 48.5% | viability, T/C [34]: 15.9% | viability, T/C [35]: 7.19% | viability, T/C [36]: 8.78%
